Results reported in ChEMBL document CHEMBL1146128, “Azolylchromans as a novel scaffold for anticonvulsant activity” (2006).

Assays:
Details in all cases: route intraperitoneal
Mus musculus [1] = test: Seizure latency in PTZ-induced lethal convulsions in mice at 5 mg/kg, ip; assay type: functional
Mus musculus [2] = test: Hind limb tonic extension in PTZ-induced lethal convulsions in mice at 5 mg/kg, ip; assay type: functional, Hindlimb
Mus musculus [3] = test: Mortality in PTZ-induced lethal convulsions in mice at 5 mg/kg, ip; assay type: functional
Mus musculus [4] = test: Seizure latency in PTZ-induced lethal convulsions in mice at 150 mg/kg, ip; assay type: functional
Mus musculus [5] = test: Hind limb tonic extension in PTZ-induced lethal convulsions in mice at 150 mg/kg, ip; assay type: functional, Hindlimb
Mus musculus [6] = test: Mortality in PTZ-induced lethal convulsions in mice at 150 mg/kg, ip; assay type: functional

SMILES | Activity (Mus musculus [1]) [min] | Activity (Mus musculus [2]) [%] | Activity (Mus musculus [3]) [%] | Activity (Mus musculus [4]) [min] | Activity (Mus musculus [5]) [%] | Activity (Mus musculus [6]) [%]
O/N=C1\c2ccccc2OCC1[n+]1cnc[nH]1 (configuration not stated) | 7.17 | 100 | 100 |  |  | 
O=C1c2ccc(Cl)cc2OCC1n1cnnc1 (configuration not stated) | 4.67 | 100 | 83 |  |  | 
O=C1c2ccc(Cl)cc2OCC1n1ccnc1 (configuration not stated) | 23.5 | 0 | 0 |  |  | 
O=C1c2ccccc2OCC1n1cnnc1 (configuration not stated) | 2.83 | 100 | 100 |  |  | 
O=C1c2ccccc2OCC1n1cncn1 (configuration not stated) | 22 | 17 | 17 |  |  | 
O=C1c2ccc(Cl)cc2OCC1n1cncn1 (configuration not stated) | 2.5 | 100 | 100 |  |  | 
O/N=C1/c2ccccc2OCC1n1cncn1 (configuration not stated) | 4 | 100 | 100 |  |  | 
O=c1c(-n2cnnc2)coc2ccccc12 | 10 | 100 | 100 |  |  | 
O/N=C1\c2ccccc2OCC1n1ccnc1 (configuration not stated) | 5.5 | 100 | 100 |  |  | 
O/N=C1/c2ccc(Cl)cc2OCC1n1cnnc1 (configuration not stated) | 2.5 | 100 | 100 |  |  | 
Cc1oc2ccccc2c(=O)c1-n1cnnc1 | 5 | 100 | 100 |  |  | 
O=C1c2ccccc2OCC1n1ccnc1 (configuration not stated) | 2 | 83 | 83 |  |  | 
O/N=C1/c2ccccc2OCC1n1ccnc1 (configuration not stated) | 7.8 | 83 | 0 |  |  | 
O/N=C1/c2ccc(Cl)cc2OCC1n1ccnc1 (configuration not stated) | 5.83 | 100 | 100 |  |  | 
C[C@@H]1Oc2ccccc2C(=O)[C@H]1n1ccnc1 (relative stereo) | 17 | 100 | 67 |  |  | 
C[C@@H]1Oc2cc(Cl)ccc2C(=O)[C@H]1n1ccnc1 (relative stereo) | 18.6 | 67 | 67 |  |  | 
C[C@H]1Oc2cc(Cl)ccc2C(=O)[C@@H]1n1cnnc1 (relative stereo) | 10 | 83 | 83 |  |  | 
C[C@H]1Oc2ccccc2C(=O)[C@@H]1n1cnnc1 (relative stereo) | 7.17 | 100 | 100 |  |  | 
CCCC(CCC)C(=O)[O-].[Na+] [VALPROATE SODIUM] |  |  |  | 15.65 | 0 | 0
